The experiment deals with T1, TNFα (Homo sapiens, UniProt P01375).
T1 construct: ybbR tag (13 aa) (N); made in house; host or cells: Escherichia coli
In words: Fluorescence anisotropy (FA) binding of fluorescently labeled bicyclic peptides to TNFα. To be noted: labeled at free N-terminal amine with 6-carboxyfluorescein. The method, then: FITC-labeled bicyclic peptide (50 or 100 nM) were incubated with varying concentrations of TNFα (0-5 μM) in 30 mM HEPES, pH 7.4, 150 mM NaCl, and 2 mM magnesium acetate for 2 h. The FA values were measured on a Molecular Devices Spectramax M5 spectrofluorimeter, with excitation and emission wavelengths at 485 and 525 nm, respectively. Equilibrium dissociation constants (KD) were determined by plotting the FA values as a function of TNFα concentration and fitting the data to the following equation
[formula] where Y is the measured anisotropy at a given TNFα concentration x; L is the bicyclic peptide concentration; Qb/Qf is the correction fact for dye-protein interaction; Amax is the maximum anisotropy when all the peptides are bound to TNFα, while Amin is the minimum anisotropy. Competition experiments were performed by incubating 100 nM Asn-Asn-Asn-Lys(FITC)-labeled anticachexin C1 (Table 1), 2 μM of TNFα, and varying concentrations of unlabeled competitor peptide (0-20 μM) in the above buffer for 2 h. The FA values were plotted against the competitor peptide concentration to determine the IC50 values.
To identify residues significant for TNFα binding, each residue of anticachexin C1 (other than D-alanine at position-3, L-lysine at position-4, and L-2,3-diaminopropionic acid (Dap) at position-10) was individually replaced with an alanine (or D-alanine). To facilitate binding analysis by fluorescence anisotropy (FA), a tetrapeptide NNNK (SEQ ID NO: 1) was added to the C-terminus of each bicyclic peptide and the lysine side chain was labeled with fluorescein isothiocyanate (FITC) during solid-phase synthesis (Scheme 1). The three asparagine residues were added to improve the aqueous solubility of the bicyclic peptides. The bicyclic peptide was prepared by first synthesizing the full-length linear sequence on Rink amide resin using standard Fmoc/HBTU chemistry. The side chains of the two internal cyclization residues, L-lysine and Dap, were protected with monomethoxytrityl (Mmt) groups, whereas the C-terminal lysine was protected with an allyloxycarbonyl (Alloc) group. After removal of the N-terminal Fmoc group, a trimesic acid was coupled to the N-terminal amine using HBTU as the coupling agent. Next, the Mmt groups were selectively removed from the Lys and Dap side chains by 2% TFA and the peptide was cyclized by treatment with (benzotriazol-1-yloxy)tripyrrolidinophosphonium hexafluorophosphate (PyBOP). The Alloc group on the C-terminal lysine side chain was removed by treatment with Pd(PPh3)4 and the bicyclic peptide was selectively labeled at the C-terminal lysine by treating the resin with FITC. […] On the other hand, phenylglycine (Phg)-1 and glycine-7 play more minor roles in binding.

In general, Kd refers to the equilibrium constant for the complex coming apart. Read a high Kd as weaker binding. On to `CC(=O)[C@@H]1CCCN(C(=O)[C@@H](Cc2c[nH]cn2)NC(=O)C(N)C(C)C)C1` (stereo partly shown) [Compound C1-74-2], for which binding was put at a Kd of 0.04 ± 0.007 µM.
